# Laboratory results published in patent US20170182033A1, “PHARMACEUTICAL COMPOSITIONS FOR EXTENDED RELEASE OF OXYCODONE AND ACETAMINOPHEN RESULTING IN A QUICK ONSET AND PROLONGED PERIOD OF ANALGESIA” (priority 2011, published 2017).
# How the values were obtained:
# [1] = Ethanol release testing at 100 rpm paddle speed (Example 29); format: physicochemical; conditions: release from the formulation
# hepatic GSH = conditions: mice; 100 mg/kg to 600 mg/kg; cited from earlier work
smiles,measurement,setting,value
CC(=O)Nc1ccc(O)cc1 [acetaminophen],"Percent Release, Mean","[1]; 0% Ethanol, 15 Min",52.2%
same,"Percent Release, Mean","[1]; 0% Ethanol, 30 Min",54.6%
same,"Percent Release, Mean","[1]; 0% Ethanol, 45 Min",56.8%
same,"Percent Release, Mean","[1]; 0% Ethanol, 60 Min",58.8%
same,"Percent Release, Mean","[1]; 0% Ethanol, 75 Min",60.8%
same,"Percent Release, Mean","[1]; 0% Ethanol, 90 Min",62.6%
same,"Percent Release, Mean","[1]; 0% Ethanol, 105 Min",64.3%
same,"Percent Release, Mean","[1]; 0% Ethanol, 120 Min",66.0%
same,"Percent Release, Mean","[1]; 0% Ethanol, 240 Min",78.6%
same,"Percent Release, Mean","[1]; 0% Ethanol, 480 Min",95.5%
same,"Percent Release, Mean","[1]; 5% Ethanol, 15 Min",52.6%
same,"Percent Release, Mean","[1]; 5% Ethanol, 30 Min",55.1%
same,"Percent Release, Mean","[1]; 5% Ethanol, 45 Min",57.1%
same,"Percent Release, Mean","[1]; 5% Ethanol, 60 Min",58.9%
same,"Percent Release, Mean","[1]; 5% Ethanol, 75 Min",60.7%
same,"Percent Release, Mean","[1]; 5% Ethanol, 90 Min",62.3%
same,"Percent Release, Mean","[1]; 5% Ethanol, 105 Min",63.9%
same,"Percent Release, Mean","[1]; 5% Ethanol, 120 Min",65.5%
same,"Percent Release, Mean","[1]; 5% Ethanol, 240 Min",77.2%
same,"Percent Release, Mean","[1]; 5% Ethanol, 480 Min",94.4%
same,"Percent Release, Mean","[1]; 10% Ethanol, 15 Min",51.7%
same,"Percent Release, Mean","[1]; 10% Ethanol, 30 Min",54.1%
same,"Percent Release, Mean","[1]; 10% Ethanol, 45 Min",56.0%
same,"Percent Release, Mean","[1]; 10% Ethanol, 60 Min",57.8%
same,"Percent Release, Mean","[1]; 10% Ethanol, 75 Min",59.5%
same,"Percent Release, Mean","[1]; 10% Ethanol, 90 Min",61.1%
same,"Percent Release, Mean","[1]; 10% Ethanol, 105 Min",62.6%
same,"Percent Release, Mean","[1]; 10% Ethanol, 120 Min",64.1%
same,"Percent Release, Mean","[1]; 10% Ethanol, 240 Min",75.5%
same,"Percent Release, Mean","[1]; 10% Ethanol, 480 Min",93.5%
same,"Percent Release, Mean","[1]; 20% Ethanol, 15 Min",50.2%
same,"Percent Release, Mean","[1]; 20% Ethanol, 30 Min",53.4%
same,"Percent Release, Mean","[1]; 20% Ethanol, 45 Min",55.5%
same,"Percent Release, Mean","[1]; 20% Ethanol, 60 Min",57.3%
same,"Percent Release, Mean","[1]; 20% Ethanol, 75 Min",59.0%
same,"Percent Release, Mean","[1]; 20% Ethanol, 90 Min",60.5%
same,"Percent Release, Mean","[1]; 20% Ethanol, 105 Min",61.9%
same,"Percent Release, Mean","[1]; 20% Ethanol, 120 Min",63.3%
same,"Percent Release, Mean","[1]; 20% Ethanol, 240 Min",76.0%
same,"Percent Release, Mean","[1]; 20% Ethanol, 480 Min",91.9%
same,"Percent Release, Mean","[1]; 40% Ethanol, 15 Min",16.7%
same,"Percent Release, Mean","[1]; 40% Ethanol, 30 Min",30.4%
same,"Percent Release, Mean","[1]; 40% Ethanol, 45 Min",38.5%
same,"Percent Release, Mean","[1]; 40% Ethanol, 60 Min",43.1%
same,"Percent Release, Mean","[1]; 40% Ethanol, 75 Min",46.1%
same,"Percent Release, Mean","[1]; 40% Ethanol, 90 Min",48.3%
same,"Percent Release, Mean","[1]; 40% Ethanol, 105 Min",49.8%
same,"Percent Release, Mean","[1]; 40% Ethanol, 120 Min",51.1%
same,"Percent Release, Mean","[1]; 40% Ethanol, 240 Min",60.8%
same,"Percent Release, Mean","[1]; 40% Ethanol, 480 Min",77.2%
same,Onset of circulating hepatic GSH changes after administration,hepatic GSH,≤ 15 min
